According to patent US7252926B2, “Planographic printing plate material and preparing process of planographic printing plate” (Konica Minolta Medical & Graphic, Inc., priority 2003, dated 2007):

Experiment: Solubility of the dye in methyl ethyl ketone (MEK)
Format: physicochemical
Details: dye dissolved in methyl ethyl ketone; wt % at 25° C.
Procedure: An anionic dye of the present invention dissolving in an amount of not less than 1% indicates an anionic dye dissolving in methyl ethyl ketone not less than 1 wt % at 25° C. More preferably, an anionic dye dissolving in methyl ethyl ketone in an amount of not less than 1.5 wt %. And still more preferably, it is not less than 2 wt %, and specifically preferably, it is not less than 2.5 wt %.

Row | SMILES | MEK Solubility (%)
1 | CCCCN1C(=O)C(=C2C=C(C)c3ccc(N(CC)CC)cc3O2)C(=O)N(CCCC)C1=S [Dye1 (nonion)] | 2
2 | Cn1c(-c2ccccc2)c(/C=C/C2=[N+](C)c3cc(Cl)ccc3C2(C)C)c2ccccc21 [Dye2 (cation)] | 1
